Assay results from patent publication US20260232682A1, “GSPT1 DEGRADER COMPOUNDS” (Captor Therapeutics S.A., priority 2023, published 2026).

Assays:
[1] = test system: Hep3B cells; assay: Cell viability CTG assay, Hep3B; format: cell-based; conditions: Homo sapiens, 72 hours treatment, read-out: Hep3B Geomean absolute IC50
Method: (§1) The effect of selected compounds of the invention on cell viability in various cell lines was investigated using the Cell Viability—CTG Assay Protocol below.
(§2) Hep3B, Hep3B GSPT1 G575N mut., Kelly, KG-1 and NCI-H929 cells were maintained in respective cell medium (see Table 5, below). Cells were seeded in appropriate density (see Table 6, below) onto 384-white plates (Greiner, cat. no. 781080 or 781098) and incubated overnight (Hep3B, Hep3B GSPT1 G575N, Kelly) or treated with compounds immediately after seeding (KG-1, NCI-H929). Tested compounds and DMSO (vehicle control) were dispensed to the plates using Echo 555 Liquid Handler. 12 data-point compound titration curve with concentrations ranging from 50 μM to 1 nM was used. Final DMSO concentration was kept constant at 0.25% v/v across the assay plate. After 72 h incubation (37° C., 5% CO2), cell viability was assessed using CellTiter-Glo® assay kit (Promega, cat. no G7573). Luminescence was measured using CLARIOstar multimode plate reader (BMG LABTECH). The raw data (the relative luminescence unit values, RLU) were uploaded under the relevant protocol and analysed in CDDVault data management platform. Luminescence (RLU) values were normalized to the controls, and reported absolute IC50 values were calculated in CDDVault using non-linear regression and appropriate equations.

[2] = Chemical stability in MV-4-11 medium; conditions: 37° C.
Method: Next, 500 μL of each solution was transferred to the 96-deep-well plate. Three replicates for each compound were performed. Plate was afterwards incubated at 37° C. with shaking (220 rpm). 50 μL of sample were withdrawn for the each timepoint (0, 1, 3, 6, 24, 48, 72, and 168 hours) and immediately mixed with 50 μL of acetonitrile. Next, samples were centrifuged at 3900 rpm, 10° C. for 20 minutes. 40 μL of supernatant was diluted with 120 μL of acetonitrile containing internal standard (IS) (10 μM), mixed, and analyzed by LC-MS/MS.
Thermo Fisher Scientific Altis+ coupled with a Vanquish system were used for UHPLC-MS/MS analysis. Analytes were separated on a Kinetex XB-C18 2.6 μm, 50×2.1 mm column, using gradient of water with 0.1% (v/v) formic acid (solvent A) and acetonitrile with 0.1% (v/v) formic acid (solvent B): 0.0 min 5% B, 0.5 min 5% B, 1.0 min 70% B, 3.0 min 95% B, 3.5 min 95% B, 3.7 min 5% B, 5 min 5% B. The mobile phase flow rate was set to 0.3 mL/min and the column was kept in 40° C. 1 μL of samples were injected. The MS/MS analysis was performed using SRM mode in positive ionization. Source parameters were set as follow: Ion Source Type H-ESI, Spray Voltage 3800 V, Sheath Gas 50 Arb, Aux Gas 10 Arb, Sweep Gas 1 Arb, Ion Transfer Tube Temp 325° C., Vaporizer Temp 350° C., Collision Gas Pressure 1.5 mTorr, Q1/Q3 Resolution (FWHM) 0.7. Three transitions were monitored for each analyte and for the internal standard:
Quantitation was based on the peak area ratio between the test compound and IS. The amount of compound remaining in the sample was calculated as follow:
The slope of logarithmic curve of percent remaining versus time has been used for calculation of half-life (t_half). First, the elimination constant (k) was calculated using the equation:
Next, half-life (t_half) was calculated using equation:

[3] = test system: KG-1 cells; assay: Cell viability CTG assay, KG-1; format: cell-based; conditions: Homo sapiens, 72 hours treatment, read-out: KG-1 Geomean absolute IC50
Method: as §1, §2

[4] = test system: Hep3B GSPT1 G575N mut. cells; assay: Cell viability CTG assay, Hep3B GSPT1 G575N mut.; format: cell-based; conditions: Homo sapiens, 72 hours treatment, read-out: Hep3B GSPT1 G575N Geomean absolute IC50
Method: as §1, §2

[5] = test system: Kelly cells; assay: Cell viability CTG assay, Kelly; format: cell-based; conditions: 72 hours treatment, read-out: Kelly Geomean absolute IC50
Method: as §1, §2

[6] = test system: NCI-H929 cells; assay: Cell viability CTG assay, NCI-H929; format: cell-based; conditions: Homo sapiens, 72 hours treatment, read-out: NCI-H929 Geomean absolute IC50
Method: as §1, §2

SMILES	IC50 [1]	% remaining at 24 hrs ([2]; concentration 1 μM)	t_half [hours] ([2]; concentration 1 μM)	% remaining at 24 hrs ([2]; concentration 10 μM)	t_half [hours] ([2]; concentration 10 μM)	IC50 [3]	IC50 [4]	IC50 [5]	IC50 [6]
Cc1ccc(NC(=O)OCc2ccc3cc(C4CCC(=O)NC4=O)c(C)nc3c2)cc1Cl (stereo not shown) [Compound 4, (3-(2,6-dioxopiperidin-3-yl)-2-methylquinolin-7-yl)methyl (3-chloro-4-methylphenyl)carbamate]	≤ 100 nM	a (a≥50%)	A (A≥15 hrs)	b (25%≤b<50%)	A (A≥15 hrs)	≤ 100 nM	> 5 µM	≤ 100 nM	≤ 100 nM
Cc1ccc(NC(=O)OCc2ccc3nc(C)c(C4CCC(=O)NC4=O)cc3c2)cc1Cl (stereo not shown) [Compound 5, (3-(2,6-dioxopiperidin-3-yl)-2-methylquinolin-6-yl)methyl (3-chloro-4-methylphenyl)carbamate]	≤ 100 nM	–	–	–	–	≤ 100 nM	> 5 µM	≤ 100 nM	≤ 100 nM
Cc1ccc(NC(=S)NCc2ccc3cc(C4CCC(=O)NC4=O)c(C)nc3c2)cc1Cl (stereo not shown) [Compound 2, 1-(3-chloro-4-methylphenyl)-3-((3-(2,6-dioxopiperidin-3-yl)-2-methylquinolin-7-yl)methyl)thiourea]	> 5000 nM	–	–	–	–	1000 to 5000 nM	> 5 µM	1000 to 5000 nM	> 5000 nM
